Laboratory results: patent US20160282364A1, “ASSAY FOR INSULIN-DEGRADING ENZYME (IDE) INHIBITORS” (PRESIDENT AND FELLOWS OF HARVARD COLLEGE, priority 2013, published 2016)

Key:
IDE = IDE (Homo sapiens, UniProt P14735); experiment: Protease assay with fluorogenic peptide substrate Mca-[…](Dnp)-OH (IDE species not given); type: biochemical; set-up: The proteases IDE42-1019, recombinant human IDE42-1019 (R&D Systems); conditions: IDE
Procedure: All data points and error bars represent mean±SEM. Significance tests were performed using two-tail Student's t-test, and significance levels shown in the figures are p<0.05 (*) or p<0.01 (**) versus the vehicle-only control group. The in vitro selection of the DNA-templated macrocycle libraryl^16,17 used 20 μg His6-tagged mouse IDE immobilized on cobalt magnetic beads (Dynabeads, Invitrogen). IDE proteolytic activity was assayed with fluorogenic peptide Mca-[…](Dnp)-OH (R&D). IDE inhibition was confirmed using an anti-insulin antibody time-resolved FRET assay (Cysbio), and using an LCMS assay for CGRP cleavage fragments CGRP1-17 and CGRP18-37 in plasma^18. […] Protease assays with fluorogenic peptide substrates. […] (R&D). All assay data points were obtained in duplicate.

C57BL/6J mice [1] = experiment: Tolerability of inhibitor doses in mice; type: in vivo; conditions: 80 mg/kg lean, 60 mg/kg DIO mice, i.p.
Source text: In vivo studies, general information. Wild-type C57BL/6J and diet-induced obese (DIO) C57BL/6J age-matched male adult mice were purchased from Jackson Laboratories. The age range was 13 to 15 weeks for lean mice, and 24 to 26 weeks for DIO mice. All animals were individually housed on a 14-h light, 10-h dark schedule at the Biology Research Infrastructure (BRI), Harvard University. Cage enrichment included cotton bedding and a red plastic hut. Water and food were available ad libitum, consisting respectively of normal chow (Prolab® RHM 3000) or high-fat diet (60 kcal % fat, D12492, Research Diets Inc.). All animal care and experimental procedures were in accordance with the standing committee on the Use of Animals in Research and Teaching at Harvard University, the guidelines and rules established by the Faculty of Arts and Sciences' Institutional Animal Care and Use Committee (IACUC), and the National Institutes of Health Guidelines for the Humane Treatment of Laboratory Animals. Glucagon-receptor knock-out (GCGR^−/−) mice were housed with a 14-h light and 10-h dark schedule and treated in accordance with the guidelines and rules approved by the IACUC at Albert Einstein College of Medicine, NY. Power analysis to determine animal cohort numbers was based on preliminary results and literature precedent, usually requiring between 5 and 8 animals per group. […]

C57BL/6J mice [2] = experiment: Insulin tolerance test, glucagon challenge and amylin challenge; type: in vivo, mouse
Procedure: Wild-type lean C57BL/6J and diet-induced obese (DIO) C57BL/6J age-matched male mice were purchased from Jackson Laboratories, and used at ages 14-16, and 24-26 weeks respectively (>20 weeks of high-fat diet for the DIO mice). GCGR^/ mice were bred from heterozygous mice and used between 11 and 17 weeks. […] Blood glucose was measured from tail nicks using AccuCheck (Aviva) meters.
Insulin Tolerance Test (ITT), Glucagon Challenge (GC) and Amylin Challenge (AC). For hormone challenges animals were fasted individually housed as described above. For ITT the fasting period was 6 h (7 am to 1 pm), and for glucagon and amylin challenges the fasting period was 14 h (8 pm-10 am). Inhibitor or vehicle alone was injected i.p. as previously described, 30 min prior to each hormone challenge. […] Glucagon (Eli Lilly) was injected s.c. 100 μg/kg formulated in 0.5% BSA sterile saline (5 mL/kg). Amylin (Bachem) was injected s.c. 250 μg/kg formulated in sterile saline (5 mL/kg). Blood glucose was measured at timepoints −45, 0, 15, 30, 45, 60 and 75 min with reference to the time of hormone injection, by microsampling from a tail nick as described above. Values are reported as mean±S.E.M. Statistics were performed using a two-tail Student's t-test, and significance levels shown in the figures are *p<0.05 versus vehicle control group or **p<0.01 versus vehicle control group.
Blood collection and plasma hormone measurements. Blood was collected in EDTA-coated tubes (BD Microtainer®) from trunk bleeding (˜500 μL) after CO2-euthanasia for all hormone assays. The plasma was immediately separated from red blood cells by centrifugation 10 min at 1800 g, aliquoted, frozen over dry ice and stored at −80° C. […] Values are reported as mean±S.E.M. Statistics were performed using a two-tail Student's t-test, and significance levels shown in the figures are *p<0.05 versus vehicle control group or **p<0.01 versus vehicle control group.

[3] = molecular target: T1, endogenous IDE in mouse plasma (Mus musculus, UniProt Q9JHR7, L174F/R633G/V509I/Y332H); experiment: LC-MS assay for ex vivo degradation of CGRP in mouse plasma; type: biochemical; conditions: CGRP 10 μM
T1 construct: endogenous IDE in mouse plasma; from tissue; host or cells: mouse plasma
Procedure: All data points and error bars represent mean±SEM. Significance tests were performed using two-tail Student's t-test, and significance levels shown in the figures are p<0.05 (*) or p<0.01 (**) versus the vehicle-only control group. The in vitro selection of the DNA-templated macrocycle libraryl^16,17 used 20 μg His6-tagged mouse IDE immobilized on cobalt magnetic beads (Dynabeads, Invitrogen). IDE proteolytic activity was assayed with fluorogenic peptide Mca-[…](Dnp)-OH (R&D). IDE inhibition was confirmed using an anti-insulin antibody time-resolved FRET assay (Cysbio), and using an LCMS assay for CGRP cleavage fragments CGRP1-17 and CGRP18-37 in plasma^18. […] IDE degradation assays for insulin and calcitonin-gene related peptide (CGRP). […] Fluorescence was measured using a Tecan Safire 2 plate reader (excitation=320 nm, emission=665 and 620 nm, lag time=60 μs) according the assay manufacturer's recommendations. Degradation of CGRP by endogenous IDE in mouse plasma was analyzed by LC-MS for the formation of CGRP1-17 and CGRP18-37 as previously reported^6.

Chain of IDE (P14735 42-1019): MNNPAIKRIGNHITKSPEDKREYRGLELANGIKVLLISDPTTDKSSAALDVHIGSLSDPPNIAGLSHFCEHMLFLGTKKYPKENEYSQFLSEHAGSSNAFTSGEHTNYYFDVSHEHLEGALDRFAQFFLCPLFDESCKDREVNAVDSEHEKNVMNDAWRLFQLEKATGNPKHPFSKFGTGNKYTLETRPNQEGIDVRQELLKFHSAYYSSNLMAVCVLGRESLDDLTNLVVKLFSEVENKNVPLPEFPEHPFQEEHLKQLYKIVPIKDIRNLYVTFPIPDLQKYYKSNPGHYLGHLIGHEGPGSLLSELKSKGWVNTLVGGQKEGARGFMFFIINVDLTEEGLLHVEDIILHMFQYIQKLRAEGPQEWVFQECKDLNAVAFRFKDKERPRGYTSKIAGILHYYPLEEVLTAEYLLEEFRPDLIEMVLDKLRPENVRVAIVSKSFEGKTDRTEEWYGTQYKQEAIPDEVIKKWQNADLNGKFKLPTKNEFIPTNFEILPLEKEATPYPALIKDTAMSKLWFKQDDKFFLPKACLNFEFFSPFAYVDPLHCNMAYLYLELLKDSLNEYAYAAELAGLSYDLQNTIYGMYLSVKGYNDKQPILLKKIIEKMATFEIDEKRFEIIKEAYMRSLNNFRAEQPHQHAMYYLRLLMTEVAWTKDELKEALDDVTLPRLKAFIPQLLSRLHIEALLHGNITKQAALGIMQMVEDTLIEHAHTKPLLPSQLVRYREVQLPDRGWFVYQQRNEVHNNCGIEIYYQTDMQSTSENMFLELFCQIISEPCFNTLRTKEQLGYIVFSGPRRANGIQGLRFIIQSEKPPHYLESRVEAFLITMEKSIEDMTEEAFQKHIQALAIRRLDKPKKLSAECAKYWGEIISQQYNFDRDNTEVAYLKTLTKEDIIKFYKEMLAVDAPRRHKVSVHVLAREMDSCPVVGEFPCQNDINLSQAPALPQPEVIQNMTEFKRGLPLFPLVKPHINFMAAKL
T1 sequence (Q9JHR7 whole entry L174F/Y332H/V509I/R633G): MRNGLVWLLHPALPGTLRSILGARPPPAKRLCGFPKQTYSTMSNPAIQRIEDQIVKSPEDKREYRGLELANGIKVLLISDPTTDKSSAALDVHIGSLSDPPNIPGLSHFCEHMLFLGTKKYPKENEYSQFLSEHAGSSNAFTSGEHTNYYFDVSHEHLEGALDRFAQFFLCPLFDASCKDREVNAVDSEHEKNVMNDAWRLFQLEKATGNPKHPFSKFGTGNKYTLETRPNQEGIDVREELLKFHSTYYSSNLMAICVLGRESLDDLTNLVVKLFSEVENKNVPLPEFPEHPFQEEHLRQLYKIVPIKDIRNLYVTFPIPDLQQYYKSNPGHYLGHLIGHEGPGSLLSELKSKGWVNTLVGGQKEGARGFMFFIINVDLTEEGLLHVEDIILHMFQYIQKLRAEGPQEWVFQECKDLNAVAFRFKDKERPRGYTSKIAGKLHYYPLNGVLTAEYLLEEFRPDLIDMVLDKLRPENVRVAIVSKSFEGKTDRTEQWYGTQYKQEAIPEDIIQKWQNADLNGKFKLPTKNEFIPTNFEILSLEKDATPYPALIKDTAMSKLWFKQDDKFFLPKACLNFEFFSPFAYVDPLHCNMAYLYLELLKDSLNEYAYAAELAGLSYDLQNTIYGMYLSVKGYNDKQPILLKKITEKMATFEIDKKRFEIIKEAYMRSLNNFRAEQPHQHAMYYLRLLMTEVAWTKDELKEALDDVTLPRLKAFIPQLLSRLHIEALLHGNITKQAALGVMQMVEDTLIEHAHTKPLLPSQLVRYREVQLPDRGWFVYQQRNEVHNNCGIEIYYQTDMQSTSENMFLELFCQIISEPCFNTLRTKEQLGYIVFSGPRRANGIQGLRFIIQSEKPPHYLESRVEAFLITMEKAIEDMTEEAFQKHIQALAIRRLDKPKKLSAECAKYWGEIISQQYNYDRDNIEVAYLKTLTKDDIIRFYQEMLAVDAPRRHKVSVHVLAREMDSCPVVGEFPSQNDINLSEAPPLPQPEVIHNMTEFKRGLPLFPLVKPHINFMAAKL

NCCCC[C@@H]1NC(=O)/C=C/C(=O)N[C@H](C(N)=O)CCCCNC(=O)[C@@H](Cc2ccc(C(=O)c3ccccc3)cc2)NC(=O)[C@H](CC2CCCCC2)NC1=O [Compound 6bK]
IC50 (IDE): 50 nM
tolerability (C57BL/6J mice [1]): well tolerated
adverse observations after high-dose insulin (C57BL/6J mice [2]; 80 mg/kg i.p. plus insulin 1.0 U/kg, sacrificed at 75 min): lethargy and hypothermia
plasma level of the hormone injected at the end of the procedure (C57BL/6J mice [2]; insulin, amylin or glucagon challenge, lean mice, vs control): remained elevated
blood glucose response to amylin challenge (C57BL/6J mice [2]; lean mice, 80 mg/kg, amylin s.c. 250 μg/kg, vs vehicle): hyperglycemia
blood glucose response to glucagon challenge (C57BL/6J mice [2]; lean mice, 80 mg/kg, glucagon s.c. 100 μg/kg, vs vehicle): hyperglycemia
blood glucose response in insulin tolerance test (C57BL/6J mice [2]; mice, 6bK 80 mg/kg i.p. 30 min before s.c. insulin, vs vehicle): lower hypoglycemia
insulin levels in insulin tolerance test (C57BL/6J mice [2]; mice, 6bK 80 mg/kg, vs vehicle controls, p<0.01): higher
hypoglycemic response to a high dose of insulin (C57BL/6J mice [2]; non-fasted male C57BL/6J mice, 80 mg/kg i.p., i.p. insulin 1.0 U/kg): Increased hypoglycemic response

NC(=O)CCC1NC(=O)C=CC(=O)NC(C(N)=O)CCCCNC(=O)C(Cc2ccc(C(=O)c3ccccc3)cc2)NC(=O)C(CC2CCCCC2)NC1=O (stereo not shown) [Compound 6b]
inhibition of IDE proteolytic activity, calcitonin-gene related peptide LC-MS assay [3]: confirmed
